In the OPERA property sets (Mansouri et al. 2018) one finds logP, solubility and log10 OH rate constant (cm³/molecule/s) data, which are given here for 65 molecules.

Structures are written as SMILES. Converted amounts (≈) assume the structure as drawn.

Details in one series: not given
Take `COc1ccc(C=[N+]([O-])C(C)(C)C)cc1`: the logP was determined as 1.21. Still for that read-out and setting: then `O=[N+]([O-])c1c(Cl)ncnc1Cl`, with 2.29; and `CC(C)Cc1ccc(C(C)(O)C(=O)O)cc1` (stereo unspecified), with 2.75; and `NC(=O)CN1CCCC1=O`, with -1.54. Same read-out and setting: then `CCN1CCC(CNC(=O)c2cc(S(N)(=O)=O)c(N)cc2OC)C1` (stereo unspecified), with 0.66; and `O=C1c2ccccc2C(=O)N1SC1CCCCC1`, with 3.66; and `COc1ccc(C(OC(C)=O)C(Cl)(Cl)Cl)cc1` (stereo unspecified), with 3.72. Same read-out and setting: as for `CCCC(C)CCC(C)=O` (stereo unspecified), the figure is 2.92; as for `Nc1ncc2ncn(COCCO)c2n1`, -1.08; as for `O=C1CCC(=O)N1c1cc(Cl)cc(Cl)c1`, 1.4.

Consider `CCCCC(C)=NNC(N)=Nc1ccccc1`, for which the log partition coefficient (logP) amounted to 2.05. Molecule `C#CCN(C)C(C)Cc1ccc(F)cc1` (stereo unspecified) registered a logP of 3. On the same count and under the same terms, as for `Nc1ncnc2c1nc(Sc1ccc(Cl)cc1)n2C1OC2COP(=O)(O)OC2C1O` (stereo unspecified), the figure is -0.98; as for `Nc1ccc(C=Cc2ccc(N)cc2S(=O)(=O)O)c(S(=O)(=O)O)c1`, -1.7. In the case of `CCCCCCOc1ccc(N)cc1`, the lipophilicity (logP) turned out to be 3.64.

`O=C(O)C1CCN1CC(O)Cn1ccnc1` (stereo unspecified): the logP was -2.02. Same read-out and setting: as for `CC=O`, the figure is -0.34; as for `O=C(CCCN1CCC(O)(c2ccc(Cl)cc2)CC1)c1ccc(F)cc1`, 4.3.

Still in this series, the particulars now being: 20 °C.
The molecule `CCOP(=S)(OCC)Oc1nc(Cl)n(C(C)C)n1` came in with a solubility of 0.324 mM (≈ 0.102 mg/mL).

For `ClCC(Br)CBr` (stereo unspecified), the solubility worked out at 4.69 mM (≈ 1.11 mg/mL). Against the preceding molecule, the solubility is about 14-fold higher. The same measure, in the same setting: then `COc1cc(C(Cl)(Cl)Cl)cc(Cl)n1`, with 0.0433 mM (≈ 0.0113 mg/mL); and `CCC(=O)c1ccccc1`, with 14.9 mM (≈ 2 mg/mL); and `CS(=O)(=O)F`, with 306 mM (≈ 30 mg/mL). The same measure, in the same setting: as for `CCOC(=O)C(O)(c1ccc(Cl)cc1)c1ccc(Cl)cc1`, the figure is 0.0351 mM (≈ 0.0114 mg/mL).

The series is the same for the next values; noted with them: 23.0 °C.
Molecule `CC(=O)C(C)(C)O` registered a log10 OH rate constant (cm³/molecule/s) of -12. Same read-out and setting: then `CC(=O)CCC=C(C)C`, with -9.8; and `CC1=CCC(=O)O1`, with -10.2; and `CC/C=C\CCO`, with -9.96.

The same series, now with this note: 24.0 °C.
Turning to `COc1ccccc1OC`, the log10 OH rate constant (cm³/molecule/s) is -10.5.

The same series, now with this note: 25 °C.
In turn, `CC(=O)OCC(=O)[C@@]1(O)CC[C@H]2[C@@H]3CCC4=CC(=O)C=C[C@]4(C)[C@H]3[C@@H](O)C[C@@]21C` showed a solubility of 0.0427 mM (≈ 0.0172 mg/mL). The same measure, in the same setting: then `O=C(O)c1cccc(C(=O)O)n1`, with 29.9 mM (≈ 5 mg/mL); and `Clc1ccc(Cl)c(-c2ccccc2Cl)c1`, with 0.00155 mM (≈ 0.0004 mg/mL). For the molecule `CS`, the solubility is 320 mM (≈ 15.4 mg/mL). In other words, the millimolar range.

Take `O=C1c2ccccc2C(=O)c2c(O)c(O)cc(O)c21`: the solubility is 0.025 mM (≈ 0.0064 mg/mL). The same measure, in the same setting: as for `CN`, the figure is 34800 mM (≈ 1080 mg/mL); as for `O=[N+]([O-])c1ccccc1`, 17 mM (≈ 2.09 mg/mL).

Molecule `O=C(O)CBr` yielded a solubility of 12600 mM (≈ 1750 mg/mL). Same read-out and setting: as for `CCCCC(C=O)CC` (stereo unspecified), the figure is 3.12 mM (≈ 0.4 mg/mL); as for `CCCCCCCCCCCCCCCCCCCC`, 6.72e-06 mM (≈ 1.9e-06 mg/mL); as for `CC(C)(C)c1cccc(C(C)(C)C)c1O`, 0.0121 mM (≈ 0.0025 mg/mL). The same measure, in the same setting: then `O=C(Oc1ccccc1)c1ccccc1C(=O)Oc1ccccc1`, with 0.000258 mM (≈ 8.2e-05 mg/mL). Take `CCN(N=O)C(N)=O`: the solubility is 111 mM (≈ 13 mg/mL). Still for that read-out and setting: then `O=C(O)CCC1CCCC1`, with 17 mM (≈ 2.42 mg/mL). In turn, `CC(O)COc1ccccc1` (stereo unspecified) came in with a solubility of 72.3 mM (≈ 11 mg/mL). The same measure, in the same setting: then `Nc1ncc2ncn(COCCO)c2n1`, with 83.7 mM (≈ 17.5 mg/mL); and `Oc1ccc(Cl)c(Cl)c1`, with 56.8 mM (≈ 9.26 mg/mL).

`Clc1ccc(C(c2ccccc2Cl)C(Cl)Cl)cc1` (stereo unspecified) showed a solubility of 0.000312 mM (≈ 0.0001 mg/mL). This lies in the sub-micromolar range. On the same count and under the same terms, as for `CCCCN(CCO)CCCC`, the figure is 23.1 mM (≈ 4 mg/mL); as for `CCN(CC)c1ccccc1`, 0.938 mM (≈ 0.14 mg/mL). In turn, `ClC(Cl)=C(Cl)C(Cl)=C(Cl)Cl` came in with a solubility of 0.0123 mM (≈ 0.0032 mg/mL).

Staying with this series, now noted: 25.0 °C.
Regarding `FC(F)(F)CC(F)(F)F`, the log10 OH rate constant (cm³/molecule/s) was -15.

`CC(Br)Br` had a log10 OH rate constant (cm³/molecule/s) of -12.6.

`CC1CCCO1` (stereo unspecified) came in with a log10 OH rate constant (cm³/molecule/s) of -10.7. As to `CCNc1nc(Cl)nc(NC(C)(C)C)n1`, the log10 OH rate constant (cm³/molecule/s) is -11. The same measure, in the same setting: then `c1ccc2c(c1)oc1ccccc12`, with -11.4; and `CC(C)CC(=O)CC(C)C`, with -10.6. The same measure, in the same setting: as for `COC(=O)CCCCC(=O)OC`, the figure is -11.1; as for `O=C/C=C/C=O`, -10.4. On the same count and under the same terms, as for `FC(C(F)(F)F)C(F)(F)F`, the figure is -14.8.

Regarding `CCCC(=O)O`, the log10 OH rate constant (cm³/molecule/s) is -11.6. Molecule `CCCc1c(F)c(F)c(F)c(F)c1F` registered a log10 OH rate constant (cm³/molecule/s) of -11.5. On the same count and under the same terms, as for `C1CC2CCCC2C1` (stereo unspecified), the figure is -11; as for `CC(C)c1ccc(NC(=O)N(C)C)cc1`, -10.9.

Still in this series, the particulars now being: 28 °C.
The molecule `O=C(O)Cc1c(Cl)ccc(Cl)c1Cl` had a solubility of 0.835 mM (≈ 0.2 mg/mL).

Staying with this series, now noted: 30 °C.
Turning to `BrC(Br)(Br)Br`, the solubility amounted to 0.724 mM (≈ 0.24 mg/mL). The same measure, in the same setting: as for `ClC(Cl)c1ccccc1`, the figure is 1.55 mM (≈ 0.25 mg/mL).

One may read the logP as a log measure of how a compound divides between an organic and an aqueous phase. A low value points to a more hydrophilic compound. As usually defined, the solubility is how much of the substance goes into solution per volume. High values mean much dissolved substance, low ones little dissolved substance.
